Key:
[1] = Stability / storability of the ligands as labeling precursors; format: physicochemical
[2] = physiological conditions; demetalation e.g. by apo-transferrin; cited from earlier work
embryonated ostrich egg = test: Administration in ostrich egg and PET/CT examination (in ovo test); conditions: in vivo in the incubated egg, approx. 10 MBq in PBS injected intravascularly
Description: The accumulation in the liver of the compounds according to the invention can be examined in a so-called ovo test, i.e. in vivo in an incubated ostrich egg. […] 2. Administration in Ostrich Egg and PET/CT Examination To carry out an intravascular injection in an embryonic egg, it is first necessary to find an […] blood vessel. This is done using a light-intensive […] lamp (Tempo No. 119, Brecker Ltd. & Co. KG, Ruethen, Germany or Powerlux […], Lyon Technologies Inc., Chula Vista, Calif., USA), with which the egg is illuminated through the eggshell in similar manner to a diaphanoscopy. After locating a large-caliber vessel, an approximately 2.5×5 cm rectangular piece is machined from the approximately 2 mm thick egg shell (Dremel® 3000, Dremel Europe-Bosch Powertools B.V., Breda, the Netherlands). Particular care must be taken to maintain the intactness of the inner membrane of the eggshell, which corresponds to the chorioallantoic membrane (CAM). After removing the eggshell lid-again using the […] lamp-the yolk vessel is punctured with a narrow 27G cannula and this is fixed to the eggshell with adhesive strips. The access thus created now allows both CT contrast media and radiopharmaceuticals to be injected via a short length of plastic tubing (Smiths MedicalTM 800/100/100 Smiths, Smiths Medical International Ltd, Ashford, Great Britain). […]

Structure (SMILES) | stability of the ligand (storable as precursor for labeling with 68Ga or 64Cu) [1] | stability of the 68Ga complex of the ligand [2] | other results
CCOc1ccc(CNC2CN(Cc3ccc(OCC)cc3O)CCN(Cc3ccc(OCC)cc3O)C2)c(O)c1 [TEOHB-DAZA, tris-N,N′,N″(4-ethoxy-2-hydroxybenzyl)-1,4-diazepan-6-amine] | stable |  | 
CCc1cccc(CC)c1NC(=O)CN(CC(=O)O)CC(=O)O [EHIDA] |  | do not form sufficiently stable ^68Ga complexes | 
CCOc1ccc(C[C@@H](CN(CCN(CC(=O)O)CC(=O)O)CC(=O)O)N(CC(=O)O)CC(=O)O)cc1 [EOB-DTPA] |  | do not form sufficiently stable ^68Ga complexes | 
COc1ccc(CNC2CN(Cc3ccc(OC)cc3O)CCN(Cc3ccc(OC)cc3O)C2)c(O)c1 [TMeOHB-DAZA, tris-N,N′,N″(4-methoxy-2-hydroxybenzyl)-1,4-diazepan-6-amine] | stable |  | 
CCOc1ccc(CNC2CN(Cc3ccc(OCC)cc3[O-])CCN(Cc3ccc(OCC)cc3[O-])C2)c([O-])c1.[68Ga+3] [^68Ga-[TEOHB-DAZA], ^68Ga[tris-N,N′,N″(4-ethoxy-2-hydroxybenzyl)-1,4-diazepan-6-amine]] |  |  | accumulation in the liver (embryonated ostrich egg): almost exclusive accumulation in the liver

— patent US11701439B2, “DAZA chelators as ligands in liver imaging” (X-NUCLEAR DIAGNOSTICS GMBH, priority 2017, dated 2023)
